# Source: PubChem BioAssay (NCI)
#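 The compound was tested at five concentrations on cells cultured in 96-well plates, with a 48-hour exposure period. TGI denotes the concentration required for complete inhibition of growth.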
# Assays:
# Experiment in all cases: inhibition of tumour cell growth, NCI panel, 48 h
# NCI-H23 lung = test system: NCI-H23 lung
# SNB-19 CNS = test system: SNB-19 CNS
# RXF 393 renal = test system: RXF 393 renal
# U251 CNS = test system: U251 CNS
# M14 melanoma = test system: M14 melanoma
# A549 NSCLC = test system: A549 NSCLC
# SK-MEL-5 melanoma = test system: SK-MEL-5 melanoma
# SF-268 CNS = test system: SF-268 CNS
# HCT-15 colon = test system: HCT-15 colon
# LOX IMVI melanoma = test system: LOX IMVI melanoma
# OVCAR-3 ovarian = test system: OVCAR-3 ovarian
# PC-3 prostate = test system: PC-3 prostate
# SR leukemia = test system: SR leukemia
# SNB-75 CNS = test system: SNB-75 CNS
# DU-145 prostate = test system: DU-145 prostate
# SN12C renal = test system: SN12C renal
# CCRF-CEM leukemia = test system: CCRF-CEM leukemia
# 786-0 renal = test system: 786-0 renal
# COLO 205 colon = test system: COLO 205 colon
# HOP-62 NSCLC = test system: HOP-62 NSCLC
# OVCAR-4 ovarian = test system: OVCAR-4 ovarian
# MDA-MB-231 breast = test system: MDA-MB-231 breast
# MCF7 breast = test system: MCF7 breast
# HCT-116 colon = test system: HCT-116 colon
# T-47D breast = test system: T-47D breast
# UACC-257 melanoma = test system: UACC-257 melanoma
# SK-MEL-2 melanoma = test system: SK-MEL-2 melanoma
# NCI/ADR-RES ovarian = test system: NCI/ADR-RES ovarian
# MOLT-4 leukemia = test system: MOLT-4 leukemia
# KM12 colon = test system: KM12 colon
# HL-60(TB) leukemia = test system: HL-60(TB) leukemia
# MDA-N = test system: MDA-N
# IGROV1 ovarian = test system: IGROV1 ovarian
# HS 578T breast = test system: HS 578T breast
# RPMI-8226 leukemia = test system: RPMI-8226 leukemia
# MALME-3M melanoma = test system: MALME-3M melanoma
# ACHN renal = test system: ACHN renal
# EKVX NSCLC = test system: EKVX NSCLC
# HOP-92 NSCLC = test system: HOP-92 NSCLC
# SK-OV-3 ovarian = test system: SK-OV-3 ovarian
# NCI-H226 lung = test system: NCI-H226 lung
# OVCAR-8 ovarian = test system: OVCAR-8 ovarian
# BT-549 breast = test system: BT-549 breast
# HT29 colon = test system: HT29 colon
# A498 renal = test system: A498 renal
# OVCAR-5 ovarian = test system: OVCAR-5 ovarian
# SK-MEL-28 melanoma = test system: SK-MEL-28 melanoma
# SF-539 CNS = test system: SF-539 CNS
# HCC-2998 colon = test system: HCC-2998 colon
# UACC-62 melanoma = test system: UACC-62 melanoma
# K-562 leukemia = test system: K-562 leukemia
# SF-295 CNS = test system: SF-295 CNS
# TK-10 renal = test system: TK-10 renal
# SW-620 colon = test system: SW-620 colon
# UO-31 renal = test system: UO-31 renal
# MDA-MB-435 = test system: MDA-MB-435
# NCI-H460 lung = test system: NCI-H460 lung
# CAKI-1 renal = test system: CAKI-1 renal
# NCI-H522 lung = test system: NCI-H522 lung
compound,measurement,setting,value
c1ccc(C2C3=C(c4ccccc4CC3)N3c4cc5nc6ccccc6nc5cc4NC34CCCCC24)cc1 (stereo not drawn),TGI,NCI-H23 lung,> 10 µM
same,TGI,SNB-19 CNS,> 10 µM
same,TGI,RXF 393 renal,> 10 µM
same,TGI,U251 CNS,> 10 µM
same,TGI,M14 melanoma,> 10 µM
same,TGI,A549 NSCLC,> 10 µM
same,TGI,SK-MEL-5 melanoma,> 10 µM
same,TGI,SF-268 CNS,> 10 µM
same,TGI,HCT-15 colon,> 10 µM
same,TGI,LOX IMVI melanoma,> 10 µM
same,TGI,OVCAR-3 ovarian,> 10 µM
same,TGI,PC-3 prostate,> 10 µM
same,TGI,SR leukemia,2.05 µM
same,TGI,SNB-75 CNS,> 10 µM
same,TGI,DU-145 prostate,> 10 µM
same,TGI,SN12C renal,> 10 µM
same,TGI,CCRF-CEM leukemia,5.9 µM
same,TGI,786-0 renal,> 10 µM
same,TGI,COLO 205 colon,> 10 µM
same,TGI,HOP-62 NSCLC,> 10 µM
same,TGI,OVCAR-4 ovarian,> 10 µM
same,TGI,MDA-MB-231 breast,> 10 µM
same,TGI,MCF7 breast,> 10 µM
same,TGI,HCT-116 colon,> 10 µM
same,TGI,T-47D breast,> 10 µM
same,TGI,UACC-257 melanoma,> 10 µM
same,TGI,SK-MEL-2 melanoma,> 10 µM
same,TGI,NCI/ADR-RES ovarian,> 10 µM
same,TGI,MOLT-4 leukemia,> 8.19 µM
same,TGI,KM12 colon,> 10 µM
same,TGI,HL-60(TB) leukemia,> 6.29 µM
same,TGI,MDA-N,> 10 µM
same,TGI,IGROV1 ovarian,> 10 µM
same,TGI,HS 578T breast,> 10 µM
same,TGI,RPMI-8226 leukemia,> 9.17 µM
same,TGI,MALME-3M melanoma,> 10 µM
same,TGI,ACHN renal,> 10 µM
same,TGI,EKVX NSCLC,> 10 µM
same,TGI,HOP-92 NSCLC,> 10 µM
same,TGI,SK-OV-3 ovarian,> 10 µM
same,TGI,NCI-H226 lung,> 10 µM
same,TGI,OVCAR-8 ovarian,> 10 µM
same,TGI,BT-549 breast,> 10 µM
same,TGI,HT29 colon,> 10 µM
same,TGI,A498 renal,> 10 µM
same,TGI,OVCAR-5 ovarian,> 10 µM
same,TGI,SK-MEL-28 melanoma,> 10 µM
same,TGI,SF-539 CNS,> 10 µM
same,TGI,HCC-2998 colon,> 10 µM
same,TGI,UACC-62 melanoma,> 10 µM
same,TGI,K-562 leukemia,> 10 µM
same,TGI,SF-295 CNS,> 10 µM
same,TGI,TK-10 renal,> 10 µM
same,TGI,SW-620 colon,> 10 µM
same,TGI,UO-31 renal,> 10 µM
same,TGI,MDA-MB-435,> 10 µM
same,TGI,NCI-H460 lung,> 10 µM
same,TGI,CAKI-1 renal,> 10 µM
COCN1C(=O)[C@@H]2CCCN2C(=O)c2ccc(Cl)cc21,TGI,NCI-H23 lung,> 100 µM
same,TGI,SNB-19 CNS,> 100 µM
same,TGI,RXF 393 renal,> 100 µM
same,TGI,U251 CNS,> 100 µM
same,TGI,M14 melanoma,> 100 µM
same,TGI,A549 NSCLC,> 100 µM
same,TGI,SF-268 CNS,> 100 µM
same,TGI,HCT-15 colon,> 100 µM
same,TGI,LOX IMVI melanoma,> 100 µM
same,TGI,PC-3 prostate,> 100 µM
same,TGI,SR leukemia,> 100 µM
same,TGI,SNB-75 CNS,> 100 µM
same,TGI,DU-145 prostate,> 100 µM
same,TGI,SN12C renal,> 100 µM
same,TGI,786-0 renal,> 100 µM
same,TGI,COLO 205 colon,> 100 µM
same,TGI,HOP-62 NSCLC,> 100 µM
same,TGI,OVCAR-4 ovarian,> 100 µM
same,TGI,MDA-MB-231 breast,> 100 µM
same,TGI,MCF7 breast,> 100 µM
same,TGI,HCT-116 colon,> 100 µM
same,TGI,T-47D breast,> 100 µM
same,TGI,UACC-257 melanoma,> 100 µM
same,TGI,SK-MEL-2 melanoma,> 100 µM
same,TGI,NCI/ADR-RES ovarian,> 100 µM
same,TGI,MOLT-4 leukemia,> 100 µM
same,TGI,KM12 colon,> 100 µM
same,TGI,HL-60(TB) leukemia,> 100 µM
same,TGI,NCI-H522 lung,> 100 µM
same,TGI,MDA-N,> 100 µM
same,TGI,IGROV1 ovarian,> 100 µM
same,TGI,HS 578T breast,> 100 µM
same,TGI,RPMI-8226 leukemia,> 100 µM
same,TGI,MALME-3M melanoma,> 100 µM
same,TGI,ACHN renal,> 100 µM
same,TGI,EKVX NSCLC,> 100 µM
same,TGI,HOP-92 NSCLC,> 100 µM
same,TGI,SK-OV-3 ovarian,> 100 µM
same,TGI,NCI-H226 lung,> 100 µM
same,TGI,OVCAR-8 ovarian,> 100 µM
same,TGI,BT-549 breast,> 100 µM
same,TGI,HT29 colon,> 100 µM
same,TGI,A498 renal,> 100 µM
same,TGI,OVCAR-5 ovarian,> 100 µM
same,TGI,SK-MEL-28 melanoma,> 100 µM
same,TGI,HCC-2998 colon,> 100 µM
same,TGI,UACC-62 melanoma,> 100 µM
same,TGI,K-562 leukemia,> 100 µM
same,TGI,SF-295 CNS,> 100 µM
same,TGI,TK-10 renal,> 100 µM
same,TGI,SW-620 colon,> 100 µM
same,TGI,UO-31 renal,> 100 µM
same,TGI,MDA-MB-435,> 100 µM
same,TGI,NCI-H460 lung,> 100 µM
same,TGI,CAKI-1 renal,> 100 µM
